Experiment [1] concerns the target T1, DNA-dependent protein kinase (DNA-PK) (Homo sapiens, UniProt P78527).
T1 construct: endogenous in cells; host or cells: Jurkat cells (ATCC TIB-152, clone E6-1), lysate
The experiment is described as follows: kinobeads assay, DNA-PK (dot blot detection). It counts as binding. The gist of the method: (§1)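 Jurkat cell lysate (5 mg/ml protein) was incubated with test compounds and kinobeads (immobilized phenylthiazole and phenylmorpholin-chromen ligands) for 2 h in the cold with shaking. Bead-bound kinase was SDS-eluted and quantified by antibody dot blot with infrared detection. IC50 values came from dose-response curves.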

Another experiment deals with T2, mTOR (Homo sapiens, UniProt P42345).
T2 construct: endogenous in cells; host or cells: Jurkat cells (ATCC TIB-152, clone E6-1), lysate
The experiment is described as follows: mTOR kinobeads assay (dot blot detection). In kind it is binding. The gist of the method: as §1

The target in another experiment is T3, PI3K delta (PI3Kd) (Homo sapiens, UniProt O00329).
T3 construct: endogenous in cells; host or cells: Jurkat cells (ATCC TIB-152, clone E6-1), lysate
The experiment is described as follows: kinobeads assay, PI3K delta (dot blot detection). In kind it is binding. The gist of the method:
as §1

In a further experiment the target is T4, PI3Kβ (Homo sapiens, UniProt P42338).
T4 construct: endogenous in cells; host or cells: Jurkat cells (ATCC TIB-152) lysate, the only lysate described
The experiment is described as follows: kinobeads assay, PI3K beta (dot blot detection). It counts as binding. As to conditions: Table 4, read-out: Inhibition values (IC50) PI3Kb.

Experiment [2] has as its system S6RP serine-240/244 phosphorylation in HEK293T/17 cells. The experiment is described as follows: In vitro phospho-S6 cellular assay (pS6RP S240/244). It counts as cell-based. The conditions noted are these: Homo sapiens, Table 6, 2 hours, S6RP Ser240/244, read-out: pS6 (phospho-S6 cell assay data, activity level). The gist of the method:
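HEK293T/17 cells in DMEM with 2% FCS treated with 8 compound concentrations (0.1% DMSO) for 2 h at 37 °C, then lysed. Phospho-S6RP Ser240/244 or phospho-Akt Ser473 quantified by MesoScale sandwich immunoassay with Sulfo-Tag detection; IC50 from variable-slope sigmoidal fit.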

Another experiment deals with T5, PI3Kγ (Homo sapiens, UniProt P48736).
T5 construct: endogenous in cells; host or cells: Jurkat cells (ATCC TIB-152) lysate, the only lysate described
The experiment is described as follows: kinobeads assay, PI3K gamma (dot blot detection). In kind it is binding. The conditions noted are these: Table 4, read-out: Inhibition values (IC50) PI3Kg.

The next experiment concerns the target T6, PI3Kα (Homo sapiens, UniProt P42336).
T6 construct: endogenous in cells; host or cells: Jurkat cells (ATCC TIB-152) lysate, the only lysate described
The experiment is described as follows: kinobeads assay, PI3K alpha (dot blot detection). In kind it is binding. The conditions noted are these: Table 4, read-out: Inhibition values (IC50) PI3Ka.

The mark [3] stands for this setting: Table 4, read-out: Inhibition values (IC50) DNAPK.
[4] abbreviates: Table 4, read-out: Inhibition values (IC50) mTOR.
Setting [5] is: Table 4, read-out: Inhibition values (IC50) PI3Kd.
The mark [6] stands for this setting: Table 2, Jurkat cell lysate, read-out: Inhibition values (IC50) DNAPK.
[7] abbreviates: Table 2, Jurkat cell lysate, read-out: Inhibition values (IC50) mTor.
Where [8] appears, read: Table 2, Jurkat cell lysate, read-out: Inhibition values (IC50) PI3Kd.

Read-outs that look alike come from different tables or passages of the source.

T1 sequence (P78527 whole entry): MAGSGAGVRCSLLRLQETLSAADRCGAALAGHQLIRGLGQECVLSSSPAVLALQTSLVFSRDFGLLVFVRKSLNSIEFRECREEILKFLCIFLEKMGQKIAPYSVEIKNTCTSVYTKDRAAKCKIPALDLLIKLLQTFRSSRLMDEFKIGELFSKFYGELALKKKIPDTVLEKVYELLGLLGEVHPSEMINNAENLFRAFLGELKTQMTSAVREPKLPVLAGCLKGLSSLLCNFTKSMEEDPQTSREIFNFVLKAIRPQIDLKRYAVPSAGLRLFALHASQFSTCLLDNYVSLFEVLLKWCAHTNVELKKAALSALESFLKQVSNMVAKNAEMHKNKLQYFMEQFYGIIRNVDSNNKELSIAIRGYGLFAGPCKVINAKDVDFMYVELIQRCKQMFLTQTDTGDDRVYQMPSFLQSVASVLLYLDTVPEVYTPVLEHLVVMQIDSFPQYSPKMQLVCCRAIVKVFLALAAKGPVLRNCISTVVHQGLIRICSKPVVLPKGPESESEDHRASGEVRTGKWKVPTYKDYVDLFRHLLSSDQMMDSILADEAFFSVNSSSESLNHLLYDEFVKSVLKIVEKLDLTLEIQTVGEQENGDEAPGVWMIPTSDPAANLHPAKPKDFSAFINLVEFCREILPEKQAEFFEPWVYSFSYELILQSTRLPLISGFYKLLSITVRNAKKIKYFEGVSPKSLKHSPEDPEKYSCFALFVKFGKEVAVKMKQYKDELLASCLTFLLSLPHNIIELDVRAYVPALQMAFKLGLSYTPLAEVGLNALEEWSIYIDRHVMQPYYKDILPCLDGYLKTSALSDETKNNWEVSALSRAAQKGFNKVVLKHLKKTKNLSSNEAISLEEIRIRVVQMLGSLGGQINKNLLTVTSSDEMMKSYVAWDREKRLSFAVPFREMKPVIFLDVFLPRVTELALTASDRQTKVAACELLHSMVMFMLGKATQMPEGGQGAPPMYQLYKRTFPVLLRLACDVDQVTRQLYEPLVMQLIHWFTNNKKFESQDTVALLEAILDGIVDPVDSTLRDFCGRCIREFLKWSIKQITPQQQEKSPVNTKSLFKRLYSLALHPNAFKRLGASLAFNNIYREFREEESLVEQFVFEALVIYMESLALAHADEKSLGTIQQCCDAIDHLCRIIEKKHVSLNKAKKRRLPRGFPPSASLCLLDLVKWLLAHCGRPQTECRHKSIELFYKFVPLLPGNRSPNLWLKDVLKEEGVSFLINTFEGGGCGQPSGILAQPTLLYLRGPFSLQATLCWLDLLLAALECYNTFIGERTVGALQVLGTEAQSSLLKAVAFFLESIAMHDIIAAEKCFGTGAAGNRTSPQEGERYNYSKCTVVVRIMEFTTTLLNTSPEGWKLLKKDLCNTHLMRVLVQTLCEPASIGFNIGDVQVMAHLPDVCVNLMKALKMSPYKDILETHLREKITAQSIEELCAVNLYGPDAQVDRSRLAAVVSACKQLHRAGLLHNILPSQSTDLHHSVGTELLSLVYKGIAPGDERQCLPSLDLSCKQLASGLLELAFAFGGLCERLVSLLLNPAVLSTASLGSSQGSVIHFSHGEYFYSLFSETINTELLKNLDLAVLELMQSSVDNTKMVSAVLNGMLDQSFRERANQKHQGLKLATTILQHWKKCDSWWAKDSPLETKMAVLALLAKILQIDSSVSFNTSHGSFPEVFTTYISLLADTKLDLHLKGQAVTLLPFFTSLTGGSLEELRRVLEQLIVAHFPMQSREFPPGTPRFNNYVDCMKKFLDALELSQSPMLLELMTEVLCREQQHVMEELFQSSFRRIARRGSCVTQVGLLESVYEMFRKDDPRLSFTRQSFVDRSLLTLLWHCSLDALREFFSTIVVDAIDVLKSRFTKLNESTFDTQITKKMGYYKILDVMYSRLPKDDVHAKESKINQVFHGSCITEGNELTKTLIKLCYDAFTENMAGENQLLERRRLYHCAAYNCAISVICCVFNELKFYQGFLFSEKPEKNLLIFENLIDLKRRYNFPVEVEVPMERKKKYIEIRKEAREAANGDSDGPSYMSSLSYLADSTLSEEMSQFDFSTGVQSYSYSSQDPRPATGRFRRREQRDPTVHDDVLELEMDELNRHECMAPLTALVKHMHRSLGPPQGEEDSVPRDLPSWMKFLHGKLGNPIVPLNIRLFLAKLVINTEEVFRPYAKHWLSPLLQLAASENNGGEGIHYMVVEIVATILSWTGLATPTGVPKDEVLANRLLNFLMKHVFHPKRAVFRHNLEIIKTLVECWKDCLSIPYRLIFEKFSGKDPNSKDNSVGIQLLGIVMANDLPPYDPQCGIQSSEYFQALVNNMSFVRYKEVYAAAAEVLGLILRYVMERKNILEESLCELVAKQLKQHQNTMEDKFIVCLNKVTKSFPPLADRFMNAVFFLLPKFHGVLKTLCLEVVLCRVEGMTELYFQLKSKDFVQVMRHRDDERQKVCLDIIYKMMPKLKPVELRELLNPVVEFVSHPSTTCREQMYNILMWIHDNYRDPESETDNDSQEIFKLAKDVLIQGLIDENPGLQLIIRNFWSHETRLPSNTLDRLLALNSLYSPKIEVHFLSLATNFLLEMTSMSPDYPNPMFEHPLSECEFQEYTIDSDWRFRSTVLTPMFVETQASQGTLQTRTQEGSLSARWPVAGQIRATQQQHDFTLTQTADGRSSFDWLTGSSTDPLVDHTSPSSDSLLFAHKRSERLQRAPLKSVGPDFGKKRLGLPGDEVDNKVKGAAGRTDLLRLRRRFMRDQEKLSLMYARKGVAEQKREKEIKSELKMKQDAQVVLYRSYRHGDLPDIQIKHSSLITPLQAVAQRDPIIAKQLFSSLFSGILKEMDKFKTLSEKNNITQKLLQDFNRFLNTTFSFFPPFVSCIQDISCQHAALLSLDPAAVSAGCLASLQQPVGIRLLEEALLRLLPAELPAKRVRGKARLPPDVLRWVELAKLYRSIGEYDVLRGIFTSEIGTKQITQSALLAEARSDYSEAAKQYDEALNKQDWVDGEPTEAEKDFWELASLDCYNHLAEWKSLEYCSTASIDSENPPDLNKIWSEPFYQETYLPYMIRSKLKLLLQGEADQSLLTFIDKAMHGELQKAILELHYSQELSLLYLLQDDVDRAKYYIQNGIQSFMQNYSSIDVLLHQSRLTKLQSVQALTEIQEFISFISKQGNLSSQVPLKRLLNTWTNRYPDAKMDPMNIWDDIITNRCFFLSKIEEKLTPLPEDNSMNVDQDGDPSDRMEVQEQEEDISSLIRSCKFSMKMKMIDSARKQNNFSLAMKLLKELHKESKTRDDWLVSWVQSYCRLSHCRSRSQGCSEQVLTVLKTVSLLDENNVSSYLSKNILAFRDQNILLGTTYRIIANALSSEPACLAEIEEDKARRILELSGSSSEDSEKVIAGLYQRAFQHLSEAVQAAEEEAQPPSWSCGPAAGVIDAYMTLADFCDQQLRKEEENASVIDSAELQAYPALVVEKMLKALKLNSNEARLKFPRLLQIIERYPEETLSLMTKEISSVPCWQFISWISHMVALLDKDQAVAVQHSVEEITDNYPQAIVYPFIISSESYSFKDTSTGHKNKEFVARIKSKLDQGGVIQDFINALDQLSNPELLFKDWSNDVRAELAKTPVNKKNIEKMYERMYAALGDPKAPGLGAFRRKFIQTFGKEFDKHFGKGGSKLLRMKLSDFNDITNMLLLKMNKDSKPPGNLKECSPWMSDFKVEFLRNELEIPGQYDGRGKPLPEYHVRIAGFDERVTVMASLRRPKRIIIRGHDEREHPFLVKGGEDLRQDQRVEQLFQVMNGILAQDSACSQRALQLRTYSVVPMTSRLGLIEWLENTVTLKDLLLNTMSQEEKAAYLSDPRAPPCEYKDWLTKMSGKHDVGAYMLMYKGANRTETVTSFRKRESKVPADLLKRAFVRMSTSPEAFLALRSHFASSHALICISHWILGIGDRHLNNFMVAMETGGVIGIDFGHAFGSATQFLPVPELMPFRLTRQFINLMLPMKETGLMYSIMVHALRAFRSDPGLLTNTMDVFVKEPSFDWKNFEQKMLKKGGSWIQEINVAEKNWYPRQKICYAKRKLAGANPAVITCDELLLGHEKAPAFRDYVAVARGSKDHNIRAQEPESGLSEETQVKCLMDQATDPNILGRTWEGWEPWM

Turning to `C[C@H](O)CNC(=O)Nc1ccc(-c2cc(-c3cc(F)ccc3S(C)(=O)=O)nc(N3CCOC[C@@H]3C)n2)cc1` [Example 83, 1-(4-(6-(5-fluoro-2-(methylsulfonyl)phenyl)-2-((S)-3-methylmorpholino)pyrimidin-4-yl)phenyl)-3-((S)-2-hydroxypropyl)urea], the IC50 in experiment [1] (setting [3]) was no less than 10 µM; on mTOR (setting [4]) it was 0.1 to 1 µM; on PI3K delta (PI3Kd) (setting [5]), no less than 10 µM; at PI3Kβ, no less than 10 µM; in experiment [2] it was less than 0.1 µM; at PI3Kγ, no less than 10 µM. For the same molecule, the IC50 on PI3Kα is no less than 10 µM.

Regarding `C[C@@H](O)CNC(=O)Nc1ccc(-c2cc(-c3cc(F)ccc3S(C)(=O)=O)nc(N3CCOC[C@@H]3C)n2)cc1` [Example 82], the IC50 in experiment [1] (setting [3]) is no less than 10 µM; at mTOR (setting [4]), 1 to 10 µM; at PI3K delta (PI3Kd) (setting [5]), no less than 10 µM; on PI3Kβ, no less than 10 µM; in experiment [2], less than 0.1 µM; at PI3Kγ, no less than 10 µM. In addition, the IC50 on PI3Kα is no less than 10 µM.

`C[C@H]1COCCN1c1cc(-c2ccncc2)nc(-c2ccc(NC(=O)NC3CC3)cc2)n1` [Example 25, (S)-1-cyclopropyl-3-(4-(4-(3-methylmorpholino)-6-(pyridin-4-yl)pyrimidin-2-yl)phenyl)urea]: the IC50 in experiment [1] (setting [6]) is no less than 10 µM; in experiment [1] (setting [3]), no less than 10 µM; on mTOR (setting [7]) it was 0.1 to 1 µM; on mTOR (setting [4]), 0.1 to 1 µM; on PI3K delta (PI3Kd) (setting [8]), no less than 10 µM; on PI3K delta (PI3Kd) (setting [5]), no less than 10 µM. The IC50 is no less than 10 µM on PI3Kβ, 0.1 to 1 µM in experiment [2], no less than 10 µM at PI3Kγ and no less than 10 µM on PI3Kα.

For the molecule `O=C(Nc1ccc(-c2nccc(N3CCOCC3)n2)cc1)NC1CC1` [Example 26, 1-cyclopropyl-3-(4-(4-morpholinopyrimidin-2-yl)phenyl)urea], the IC50 in experiment [1] (setting [6]) is 1 to 10 µM; in experiment [1] (setting [3]), 1 to 10 µM; on mTOR (setting [7]), 0.1 to 1 µM; on mTOR (setting [4]), 0.1 to 1 µM; at PI3K delta (PI3Kd) (setting [8]), no less than 10 µM; at PI3K delta (PI3Kd) (setting [5]), no less than 10 µM. Besides, the IC50 was 1 to 10 µM on PI3Kβ, 0.1 to 1 µM in experiment [2], no less than 10 µM on PI3Kγ and no less than 10 µM on PI3Kα.

Take `C[C@H]1COCCN1c1cc(-c2cccnc2)nc(-c2ccc(NC(=O)NC3CC3)cc2)n1` [Example 3, (S)-1-cyclopropyl-3-(4-(4-(3-methylmorpholino)-6-(pyridin-3-yl)pyrimidin-2-yl)phenyl)urea]: the IC50 is no less than 10 µM in experiment [1] (setting [6]); no less than 10 µM in experiment [1] (setting [3]); 0.1 to 1 µM on mTOR (setting [7]); 0.1 to 1 µM at mTOR (setting [4]); no less than 10 µM at PI3K delta (PI3Kd) (setting [8]); no less than 10 µM on PI3K delta (PI3Kd) (setting [5]). The IC50 is no less than 10 µM at PI3Kβ, less than 0.1 µM in experiment [2], no less than 10 µM at PI3Kγ and no less than 10 µM on PI3Kα.

For `CCS(=O)(=O)c1ccccc1-c1cc(-c2ccc(NC(=O)NC3CC3)cc2)nc(N2CCOC[C@@H]2C)n1` [Example 87, (S)-1-cyclopropyl-3-(4-(6-(2-(ethylsulfonyl)phenyl)-2-(3-methylmorpholino)pyrimidin-4-yl)phenyl)urea], the IC50 in experiment [1] (setting [3]) was no less than 10 µM; on mTOR (setting [4]), 0.1 to 1 µM; on PI3K delta (PI3Kd) (setting [5]) it was no less than 10 µM; at PI3Kβ, no less than 10 µM; in experiment [2], less than 0.1 µM; at PI3Kγ, no less than 10 µM. In addition, on PI3Kα, the IC50 was no less than 10 µM.

Take `C[C@H]1COCCN1c1cc(-c2cncc(F)c2)nc(-c2ccc(NC(=O)NCCO)cc2F)n1` [Example 65, (S)-1-(3-fluoro-4-(4-(5-fluoropyridin-3-yl)-6-(3-methylmorpholino)pyrimidin-2-yl)phenyl)-3-(2-hydroxyethyl)urea]: the IC50 is no less than 10 µM in experiment [1] (setting [6]); no less than 10 µM in experiment [1] (setting [3]); 0.1 to 1 µM at mTOR (setting [7]); 0.1 to 1 µM on mTOR (setting [4]); no less than 10 µM on PI3K delta (PI3Kd) (setting [8]); no less than 10 µM at PI3K delta (PI3Kd) (setting [5]). Also, the IC50 on PI3Kβ was no less than 10 µM; in experiment [2], 0.1 to 1 µM; on PI3Kγ, no less than 10 µM; at PI3Kα, no less than 10 µM.

Regarding `CCNC(=O)Nc1ccc(-c2nccc(N3CCOC[C@@H]3C)n2)cc1` [Example 37, (S)-1-ethyl-3-(4-(4-(3-methylmorpholino)pyrimidin-2-yl)phenyl)urea], the IC50 was no less than 10 µM in experiment [1] (setting [6]); no less than 10 µM in experiment [1] (setting [3]); 1 to 10 µM at mTOR (setting [7]); 0.1 to 1 µM at mTOR (setting [4]); no less than 10 µM at PI3K delta (PI3Kd) (setting [8]); no less than 10 µM on PI3K delta (PI3Kd) (setting [5]). Further, the IC50 was no less than 10 µM at PI3Kβ, 0.1 to 1 µM in experiment [2], no less than 10 µM at PI3Kγ and no less than 10 µM on PI3Kα.

Regarding `CCNC(=O)Nc1ccc(-c2cc(-c3ccccc3S(=O)(=O)N(C)C)nc(N3CCOC[C@@H]3C)n2)cc1` [Example 14, (S)-2-(6-(4-(3-ethylureido)phenyl)-2-(3-methylmorpholino)pyrimidin-4-yl)-N,N-dimethylbenzenesulfonamide], the IC50 in experiment [1] (setting [6]) is no less than 10 µM; in experiment [1] (setting [3]), no less than 10 µM; on mTOR (setting [7]), 0.1 to 1 µM; at mTOR (setting [4]), 0.1 to 1 µM; on PI3K delta (PI3Kd) (setting [8]) it was no less than 10 µM; on PI3K delta (PI3Kd) (setting [5]), no less than 10 µM. The IC50 at PI3Kβ was no less than 10 µM; in experiment [2], 0.1 to 1 µM; at PI3Kγ it was no less than 10 µM; at PI3Kα, no less than 10 µM.

`C[C@H]1COCCN1c1nccc(-c2ccc(NC(=O)NCCO)cc2)n1` [Example 58, (S)-1-(2-hydroxyethyl)-3-(4-(2-(3-methylmorpholino)pyrimidin-4-yl)phenyl)urea]: the IC50 was no less than 10 µM in experiment [1] (setting [6]); no less than 10 µM in experiment [1] (setting [3]); 1 to 10 µM at mTOR (setting [7]); 1 to 10 µM at mTOR (setting [4]); no less than 10 µM at PI3K delta (PI3Kd) (setting [8]); no less than 10 µM at PI3K delta (PI3Kd) (setting [5]). Besides, the IC50 on PI3Kβ was no less than 10 µM; in experiment [2], 0.1 to 1 µM; on PI3Kγ, no less than 10 µM; on PI3Kα, no less than 10 µM.

Regarding `C[C@H]1COCCN1c1nc(-c2ccc(NC(=O)NC3CC3)cc2)cc(-c2cccnc2[S+](C)[O-])n1` (stereo partly drawn) [Example 45, 1-cyclopropyl-3-(4-(2-((S)-3-methylmorpholino)-6-(2-(methylsulfinyl)pyridin-3-yl)pyrimidin-4-yl)phenyl)urea], the IC50 in experiment [1] (setting [6]) is no less than 10 µM; in experiment [1] (setting [3]), no less than 10 µM; on mTOR (setting [7]) it was less than 0.1 µM; at mTOR (setting [4]), less than 0.1 µM; on PI3K delta (PI3Kd) (setting [8]), 1 to 10 µM; at PI3K delta (PI3Kd) (setting [5]) it was 1 to 10 µM. Moreover, the IC50 at PI3Kβ was 1 to 10 µM; in experiment [2] it was 0.1 to 1 µM; on PI3Kγ, no less than 10 µM; on PI3Kα it was 1 to 10 µM.
